Experimental findings from US20030170606A1, “High-throughput screening assays for modulators of mitochondrial membrane potential” (priority 1999, published 2003) are described below.

This experiment concerns UCP1. Description: DiSC3 fluorescence assay in permeabilized UCP1-expressing yeast cells (YUCP). The experiment is classed as cell-based. The method, then:
To make the cells permeable to externally added compounds, the yeast cells were treated with zymolyase. The spheroplasts were cultured in full media for 0.5 hours and pelleted. The pellets were resuspended in a lysis buffer and stored at about −80° C. The permeabilized cells can be kept in this way for at least one half year without loss of activity.
To assess the effects of known modulators of uncoupling activity and of uncoupling protein activity, the following fluorescence intensity measurements were carried out: Permeabilized cells were combined with the fluorescent dye DiSC3 in buffer and incubated for about 5-60 min., usually less than about 30 min. The resulting fluorescence intensity (λexc=620 nm, λem=670 nm) corresponded to the basal ΔΨm. The mitochondria accumulate the fluorescent dye into the matrix in proportion to the ΔΨm, and at basal ΔΨm, the DiSC3 fluorescence is substantially quenched.
A Beckman Multimek™ 96 Automated 96-channel Pipettor was programmed to mix test compounds from master plates with the buffer containing freshly premixed permeabilized cells (0.1 OD) and DiSC3 (0.1 μM) and transfer this mixture to black 96-well plates. An LJL analyst was used in the fluorescence intensity mode to measure the DiSC3 fluorescence. […] A total of about 3,300 compounds were screened in this way to test the feasibility of this method.
Data are presented in FIG. 7B after transformation of the fluorescence data according to (Fcompd/Fcontrol−1), where Fcompd is the fluorescence intensity of a given well (as shown in FIG. 7A), and Fcontrol is the basal fluorescence obtained as an average intensity in column 1 where no compound was added (instead an equivalent volume of dimethyl sulfoxide (DMSO) was added).

With `Nc1nc2c(ncn2[C@@H]2O[C@H](COP(=O)(O)OP(=O)(O)O)[C@@H](O)[C@H]2O)c(=O)[nH]1` [GDP], the “DiSC3 fluorescence level upon addition of compound” value (100 μM added in the presence of BrPalm) was “reverted back to the level close to basal intensity”.

As to `N#CC(C#N)=NNc1ccc(Cl)cc1` [CCCP, carbonyl-cyanide p-chlorophenylhydrazone], the “DiSC3 fluorescence level upon addition of compound” value (1 μM) was “fluorescence reaches a maximum level”.

`[Cl-].[K+]` [KCl]: where the note is “0 to 125 mM”, the “change in DiSC3 fluorescence intensity (plasma membrane potential control)” value is on record as “no change in fluorescence intensity”.

For `CCCCCCCCCCCCCCC(Br)C(=O)O` (stereo not shown) [BrPalm, 2-bromo-palmitate], the “DiSC3 fluorescence level upon addition of compound” value (5 to 10 μM) was “higher fluorescence level”.
